Measured values taken from article PMC12549899 (Nature Communications, 2025).
Several values for one entry are separate records, joined by “and”; a condition that tells them apart may be missing. Equal entries are not always repeated.

Molecular target: T1, DrOTOP1 G130W (Danio rerio, UniProt Q7ZWK8, G130W)
T1 construct: A previously generated codon-optimized full-length DrOTOP1[8]; (UniProt: Q7ZWK8) construct; expressed in transfected cells; host or cells: HEK-293 (CRL-1573, ATCC)
T1 sequence (Q7ZWK8 1-586 G130W): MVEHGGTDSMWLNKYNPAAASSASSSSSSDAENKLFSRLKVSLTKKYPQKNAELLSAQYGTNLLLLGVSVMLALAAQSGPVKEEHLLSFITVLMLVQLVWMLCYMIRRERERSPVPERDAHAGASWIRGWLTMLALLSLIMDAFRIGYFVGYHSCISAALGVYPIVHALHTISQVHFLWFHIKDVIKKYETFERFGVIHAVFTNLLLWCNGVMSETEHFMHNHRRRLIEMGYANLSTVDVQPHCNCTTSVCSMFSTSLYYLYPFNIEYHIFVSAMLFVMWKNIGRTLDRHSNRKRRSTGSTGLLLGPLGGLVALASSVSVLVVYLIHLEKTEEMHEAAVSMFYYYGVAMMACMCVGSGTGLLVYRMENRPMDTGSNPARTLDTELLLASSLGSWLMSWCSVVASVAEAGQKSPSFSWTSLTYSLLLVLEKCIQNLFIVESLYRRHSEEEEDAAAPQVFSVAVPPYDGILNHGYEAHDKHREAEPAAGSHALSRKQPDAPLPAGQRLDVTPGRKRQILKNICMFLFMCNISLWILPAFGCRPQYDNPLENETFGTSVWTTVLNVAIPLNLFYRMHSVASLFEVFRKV
Test: Whole-cell patch-clamp, inhibition of acid-evoked currents, DrOTOP1 G130W (outer site)
Type: cell-based, zebrafish (Danio rerio)
Description: To functionally test the significance of the two binding sites identified by cryo-EM, we generated point mutations of DrOTOP1 using the binding poses and conformational changes observed in DrOTOP1_C2.2 to guide our mutations. As per the binding pose that best fits our cryo-EM density, C2.2 forms the following interactions in the outer site: hydrophobic packing against many non-polar residues W126, G130, M133, L134, F271, F570, and M573, and π-stacking with W532 (Fig. 5A). In addition, C2.2 could potentially form H-bonds with E267, if the sidechain is protonated or a water bridge is present, and with H574 if it moves closer (Fig. 5A). Likewise, C2.36 presents a heterocyclic nitrogen that can potentially form a H-bond with E267, similarly, provided a protonation or water bridge is present (Fig. 5B). In addition, C2.36 forms a T-shaped π-stacking interaction with H574, whose sidechain has rotated 90 degrees (compared to DrOTOP1_apo), presumably to accommodate the interaction (Fig. 5B). Considering other inhibitors discovered from the second round of screening, many contain functional groups like the carbonyl groups of Group 1 molecules and the heterocyclic nitrogen atoms of Group 2 molecules (Supplementary Fig. 3E), that can potentially form similar H-bonds with E267 as C2.2 and C2.36, assuming the binding modes are similar. In the central site, C2.2 binds with the following interactions: hydrophobic packing with residues V201, F271, A274, V278, and A388, π-stacking with F277, and H-bonding with E384 (Fig. 5C).
Each non-aromatic residue was mutated to tryptophan, which was expected to cause steric occlusion. […] This seemed appropriate given the small number of H-bonds in these pockets, the ambiguity of how the inhibitors fit the density, and the prevalence of hydrophobic packing interactions (Fig. 5A–C).
HEK-293 cells (CRL-1573, ATCC) were cultured in DMEM (Thermofisher 11995073) containing 10% fetal bovine serum (Life Technology 16000044) and Penicillin-Streptomycin (100 I.U./mL) and (100 µg/mL), respectively. Cells were transfected with WT DrOTOP1 or mutant DrOTOP1 channels in 35 mm petri dishes, with ~ 500 ng DNA and 2 μL TransIT-LT1 transfection reagent (Mirus Bio Corporation, Cat # MIR2300) following the manufacturer’s protocol. All constructs were subcloned into a pcDNA3.1 vector that adds an N-terminal fusion tag consisting of an octahistidine tag followed by eGFP, a Gly-Thr-Gly-Thr linker and a 3C protease cleavage site ([…]) followed by WT DrOTOP1, WT mOTOP1, WT hOTOP1, or mutated DrOTOP1. Point mutations were generated via In-Fusion Cloning (Takara) using single-stranded DNA primers generated through IDT and sequence confirmed by Sanger sequencing (GeneWiz).
Whole-cell patch-clamp recording was performed as previously described[6],[22],[25]. Recordings were made with an Axopatch 200B amplifier, digitized with a Digidata 1322a 16-bit data acquisition system, acquired with pClamp 8.2 and analyzed with Clampfit 10 (Molecular Devices). Recordings were sampled at 5 kHz and filtered at 1 kHz. Patch Pipettes with resistance of […] were fabricated from borosilicate glass, and only recordings with a giga-Ohm seal were used in analysis. Membrane potential was held at −80 mV for the duration of recordings. At the beginning of recordings and between, cells were washed with Tyrode’s solution (see below). Once a giga-Ohm seal was reached, cells were lifted and placed in front of microcapillary tubes controlled by a Fast-Step perfusion system (Warner Instruments) so that extracellular solutions could be rapidly exchanged during each experiment.
Standard Tyrode’s solution consisted of 145 mM NaCl, 5 mM KCl, MgCl2, 2 mM CaCl2, 20 mM D-Glucose, and 10 mM HEPES (for pH 7.4). All other extracellular patch-clamp solutions contained 160 mM NMDG-Cl, 2 mM CaCl2, and the following buffers: 10 mM HEPES (for pH 7.4), 10 mM MES (for pH 6.5-5.5), 10 mM CHES for pH 10, and 10 mM HomoPIPES for (pH 5.0). pH adjusted with HCl. […]

Structure (SMILES)	inhibition at 100 µM (DrOTOP1 G130W, single cells)	inhibition at 30 µM (30 µM, DrOTOP1 G130W, single cells)	Hill coefficient (DrOTOP1 G130W)	IC50 (DrOTOP1 G130W, pH 5.5)	Mean, Fig 5N (G130W + C2.2, n=5)	Disruption of inhibitory activity by site-directed mutagenesis of outer site residues (outer site mutants compared with WT)
O=C(/C(=N\O)c1ccccc1)c1ccccc1 [C11, benzil monoxime]	62.7%					
C=C(C)COc1ccccc1NC(=O)c1nc[nH]c1C [C2.2]	42.4%	15.3%	1.123	130 µM and 138 µM	15.24	≤ 20 fold
